Tests used:
[1] = system: collagen cross-links; test: Rodent injury model (full-thickness skin excision); type: in vivo, mice
Description: Mice received injury by excision of full-thickness skin (3 cm^2 on the flank of the mice). In the treatment groups, 4% Compound 1 solution was applied topically, once a day, starting from 24 hours post injury to 1 week post injury. Wounds were then left to heal for an additional week. Mice were euthanized at 4-6 weeks post injury and the tissue was analyzed for collagen content, hydroxyproline as a surrogate marker of collagen content, extracted cross-link biomarkers: HLNL, DHLNL (reduced forms of deH-HLNL and deH-DHLNL respectively), PYD and DPD, elastin content, and changes in gross morphology and histology (using polarised light microscopy, immunohistochemistry, standard staining markers and LCMSMS).

[2] = target: T1, Human recombinant SSAO/VAP-1 (Homo sapiens, UniProt Q16853); test: Inhibition of human recombinant SSAO/VAP-1, fluorescent Amplex Red assay; type: biochemical; conditions: 30 min incubation at 37 °C; benzylamine 600 μM in reaction mixture
T1 construct: a cloned cDNA template corresponding to residues 34-763 of human SSAO/VAP-1; TEV cleavage site (N); made in house; host or cells: CHO-K1 glycosylation mutant cell line, Lee 8 (vector assembled by Geneart AG)
T1 sequence (Q16853 34-763): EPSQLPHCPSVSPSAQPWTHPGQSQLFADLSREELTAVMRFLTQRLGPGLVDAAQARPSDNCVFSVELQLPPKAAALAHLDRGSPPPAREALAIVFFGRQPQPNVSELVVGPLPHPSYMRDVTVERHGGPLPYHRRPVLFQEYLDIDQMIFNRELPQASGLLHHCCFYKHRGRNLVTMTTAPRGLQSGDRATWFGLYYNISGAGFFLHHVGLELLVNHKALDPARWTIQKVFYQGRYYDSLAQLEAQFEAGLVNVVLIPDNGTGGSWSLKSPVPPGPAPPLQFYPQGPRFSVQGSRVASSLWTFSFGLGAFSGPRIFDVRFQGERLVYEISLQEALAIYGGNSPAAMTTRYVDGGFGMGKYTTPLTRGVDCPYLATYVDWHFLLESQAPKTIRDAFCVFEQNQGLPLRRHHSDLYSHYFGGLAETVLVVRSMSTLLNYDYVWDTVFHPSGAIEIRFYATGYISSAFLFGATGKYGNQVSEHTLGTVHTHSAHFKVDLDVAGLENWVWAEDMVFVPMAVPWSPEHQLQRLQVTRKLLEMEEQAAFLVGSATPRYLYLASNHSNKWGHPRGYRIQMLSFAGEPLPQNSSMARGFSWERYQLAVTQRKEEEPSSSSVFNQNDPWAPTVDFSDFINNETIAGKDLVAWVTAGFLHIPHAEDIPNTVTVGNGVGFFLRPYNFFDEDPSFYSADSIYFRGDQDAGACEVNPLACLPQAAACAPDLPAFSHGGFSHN
Description: Human recombinant SSAO/VAP-1 amine oxidase activity was determined using the coupled colorimetric method as described for monoamine oxidase, copper-containing amine oxidases and related enzymes [Holt A. and Palcic M., 2006]. Briefly, a cloned cDNA template corresponding to residues 34-763 of human SSAO/VAP-1, and incorporating a mouse Ig kappa (κ) signal sequence, N-terminal flag epitope tag and tobacco etch virus (TEV) cleavage site, was assembled in a mammalian expression vector (pLO-CMV) by Geneart AG. This vector containing human SSAO/VAP-1 residues was transfected into CHO-K1 glycosylation mutant cell line, Lee 8. A clone stably expressing human SSAO/VAP-1 was isolated and cultured in large scale. Active human SSAO/VAP-1 was purified and recovered using immunoaffinity chromatography. This was used as the source for SSAO/VAP-1 activity. A high-throughput fluorescent assay was developed using either 96 or 384 well format. Briefly, in a standard 384 well plate assay 25 μL of purified human SSAO/VAP-1 (0.25 μg/mL) in 0.1 M sodium phophate buffer (pH 7.4) was added into each well. […] The fluorescence unit (RFU) was read every 2.5 min for 30 min at 37 °C excitation 544 nm and emission 590 (Optima; BMG labtech). The slope/min of the kinetics for each well was calculated using MARS data analysis software (BMG labtech) and this value was used to deduce the IC50 value (Dotmatics).

[3] = system: skin fibrosis; test: Mouse model of sclerosis (bleomycin-induced skin fibrosis); type: in vivo, male C57BL/6 mouse; conditions: topical formulation, various concentrations, from day 3; histology after 21 days; FIG. 3, ****=P≤0.0001
Description: Subcutaneous bleomycin (0.1 U/kg) was administered every second day (for 21 days total) to male C57BL/6 to induce skin fibrosis as a model of sclerosis. The lesions were treated, from day 3, with either Vehicle or various concentrations of Compound 1 in a topical formulation. Histology was completed after 21 days.

[4] = system: TA98, TA100, TA1535 and TA1537 strains of Salmonella typhimurium and WP2uvrA (pKM101) strain of Escherichia coli; test: Bacterial Reverse Mutation Test, initial and confirmatory mutation assay
Description: The test item Compound 1 was tested for its mutagenic potential in the bacterial reverse mutation assay. The study was conducted using TA98, TA100, TA1535 and TA1537 strains of Salmonella typhimurium and WP2uvrA (pKM101) strain of Escherichia coli in three phases; a preliminary toxicity test, an initial mutation assay and a confirmatory mutation assay. The bacterial tester strains were exposed to the test item in the presence and absence of metabolic activation system (S9 fraction prepared from Aroclor 1254 induced rat liver).
The bacterial tester strains were exposed to the test item in triplicate at 50, 158, 500, 1581 and 5000 μg/plate. The initial mutation assay was conducted using the direct plate incorporation mode of exposure whereas the confirmatory mutation assay was carried out using the pre-incubation mode of exposure. The vehicle control (DMSO) and the appropriate positive controls were tested simultaneously. The mean and standard deviation of numbers of revertant colonies were calculated for each test dose and the controls for all the tester strains.

[5] = system: Salmonella typhimurium TA100; test: Bacterial reverse mutation test, preliminary toxicity test (direct plate incorporation)
Description: In the preliminary toxicity test, for selection of test doses for the mutation assay, Salmonella typhimurium, TA100 was exposed to the test item at 39.0625, 78.125, 156.25, 312.5, 625, 1250, 2500 and 5000 μg/plate along with a DMSO control using direct plate incorporation.

[6] = target: T2, Human DAO (Homo sapiens, UniProt P19801); test: Inhibition of human recombinant DAO; type: biochemical; conditions: 2 hours incubation; substrate putrescine 200 μM
T2 construct: Prof; Boehm, Department of Clinical Pharmacology, Medical University, Vienna (gift)
T2 sequence (P19801 20-751): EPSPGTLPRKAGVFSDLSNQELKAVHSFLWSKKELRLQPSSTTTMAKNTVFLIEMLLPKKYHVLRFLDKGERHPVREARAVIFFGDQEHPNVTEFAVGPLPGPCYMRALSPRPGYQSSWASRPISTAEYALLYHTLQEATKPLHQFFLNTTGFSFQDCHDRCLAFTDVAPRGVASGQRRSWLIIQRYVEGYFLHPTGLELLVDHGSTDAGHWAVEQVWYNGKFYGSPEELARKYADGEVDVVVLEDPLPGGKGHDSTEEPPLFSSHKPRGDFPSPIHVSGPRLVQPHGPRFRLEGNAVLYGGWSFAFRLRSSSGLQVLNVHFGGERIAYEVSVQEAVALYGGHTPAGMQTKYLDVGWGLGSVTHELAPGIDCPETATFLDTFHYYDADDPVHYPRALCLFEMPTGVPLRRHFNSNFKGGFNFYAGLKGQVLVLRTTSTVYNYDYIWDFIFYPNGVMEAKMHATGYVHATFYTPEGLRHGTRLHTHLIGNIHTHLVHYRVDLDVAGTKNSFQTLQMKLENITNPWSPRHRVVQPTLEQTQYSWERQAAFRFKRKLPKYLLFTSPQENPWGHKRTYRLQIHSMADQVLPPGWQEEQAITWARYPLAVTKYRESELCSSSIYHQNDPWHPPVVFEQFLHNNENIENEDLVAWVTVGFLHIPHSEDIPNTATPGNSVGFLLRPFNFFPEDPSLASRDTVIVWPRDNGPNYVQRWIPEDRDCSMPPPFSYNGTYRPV

[7] = target: T3, Human MAO-B (Homo sapiens, UniProt P27338); test: Inhibition of human recombinant MAO-B; type: biochemical; conditions: substrate benzylamine 100 μM
T3 construct: purchased Sigma Aldrich
T3 sequence (P27338 whole entry): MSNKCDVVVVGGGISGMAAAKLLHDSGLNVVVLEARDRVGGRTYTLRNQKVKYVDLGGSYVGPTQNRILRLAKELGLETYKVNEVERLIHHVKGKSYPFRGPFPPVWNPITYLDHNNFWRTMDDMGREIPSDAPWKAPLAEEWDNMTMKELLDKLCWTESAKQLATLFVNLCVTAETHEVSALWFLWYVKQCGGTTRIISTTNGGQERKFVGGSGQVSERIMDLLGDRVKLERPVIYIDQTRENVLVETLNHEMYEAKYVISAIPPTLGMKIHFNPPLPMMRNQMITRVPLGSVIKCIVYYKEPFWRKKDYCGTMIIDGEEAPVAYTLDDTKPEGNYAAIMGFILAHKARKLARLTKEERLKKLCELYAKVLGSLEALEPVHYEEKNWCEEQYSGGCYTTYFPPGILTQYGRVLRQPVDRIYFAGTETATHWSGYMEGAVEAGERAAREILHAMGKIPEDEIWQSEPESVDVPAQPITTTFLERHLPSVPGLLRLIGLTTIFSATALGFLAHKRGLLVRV

[8] = system: desmoplastic tumour; conditions: mouse, in vivo; cited from earlier work
[9] = system: lysyl oxidase; conditions: various models (e.g. CCl4, bleomycin, quartz, cancer) and tissues (e.g. liver, lung and dermis); cited from earlier work
[10] = system: LOX; conditions: CIA rats; cited from earlier work
[11] = human patients with scleroderma; cited from earlier work
[12] = system: SiHa cervical cancer cells; conditions: in vitro, hypoxic/anoxic conditions; cited from earlier work
[13] = system: systemic LOX; conditions: mouse, in vivo; cited from earlier work
[14] = 4% solution topically once a day, 24 hours to 1 week post injury, vs control (FIG. 4, *=P≤0.05)

Row | Structure (SMILES) | Immature crosslinks (LCMS, normalized for protein content) [1, 14] | Mature crosslinks (LCMS, normalized for protein content) [1, 14] | Collagen cross-links ([1]; rodent injury model, FIG. 4 (*=P≤0.05)) | IC50 [2] [µM] | Average collagen score (histology) [3] | Mutagenic increase in revertant colonies ([4]; 50-5000 μg/plate, with and without metabolic activation (S9), initial and confirmatory assay, all tester strains) | Mutagenicity ([4]; up to the top dose 5000 μg/plate) | Toxicity to the tester strain (bacterial background lawn, revertant colony counts) ([5]; 39.0625-5000 μg/plate, presence and absence of metabolic activation) | Precipitation on the basal agar plates ([5]; up to 5000 μg/plate, presence or absence of metabolic activation) | IC50 [6] [µM] | IC50 [7] [µM] | Metastatic load and survival [8] | Reduction of collagen content [9] | Effect on inflammation, synovial hyperplasia, angiogenesis, MMP-2 and MMP-9 expression [10] | Tolerability [11] | Invasion of SiHa cells [12] | Metastasis and survival [13]
1 | NC/C(=C\F)CS(=O)(=O)c1ccccc1 [Compound 1, (E)-3-fluoro-2-((phenylsulfonyl)methyl)prop-2-en-1-amine] | reduced | reduced | reduction in collagen cross-links | > 30 | significant improvement in the average collagen score | did not show any positive mutagenic increase | not mutagenic | did not exhibit toxicity to the tester strain | did not precipitate on the basal agar plates | > 100 | > 30 |  |  |  |  |  | 
2 | N#CCCN [BAPN, β-aminopropionitrile, reference compound] |  |  |  |  |  |  |  |  |  |  |  | lower metastatic load and increased survival | efficacious in reducing collagen content | attenuate inflammation, synovial hyperplasia, angiogenesis and expression of MMP-2 and MMP-9 | poorly tolerated | repressed | reducing metastasis and increasing survival
